The test system of the assay is conscious guinea pigs. Kind of assay: Citric acid inhalation cough model in conscious guinea pigs. The format is in vivo, guinea pig. Conditions: 30 min before citric acid aerosols 0.01M-0.3M. The method, then:
Cough suppression was evaluated in conscious guinea pigs using a citric acid inhalation model (Smith et al., 2012). Guinea pigs were pretreated intraperitoneally with drug vehicle (saline), α7 PHA543613 (10 mg/kg) (FIG. 3), or (2S,3R)—N-(2-(3-pyridinyl)methyl)-1-azabicyclo[2.2.2]oct-3-yl)benzofuran-2-carboxamide (30 mg/kg) (FIG. 4). Respiration and cough reflexes were measured using a Buxco inhalation chamber connected to a Biopac data acquisition system. Thirty minutes after vehicle or drug administration, animals were challenged in sequence with ascending aerosol concentrations of citric acid (0.01M-0.3M), with each aerosol delivered for 5 minutes and with 5 minutes interval in between challenges. The cumulative coughs evoked were quantified and results are presented as a mean±standard error of the mean (SEM) of n experiments, where n refers to a single animal). Studies were performed using a nonpaired parallel group design. Differences amongst group means were evaluated by t-test or ANOVA, with a p<0.05 considered statistically significant which is represented by an asterisk (*) in FIG. 3 and FIG. 4.

`O=C(N[C@H]1CN2CCC1CC2)c1cc2ccoc2cn1` [PHA543613]: the “cumulative citric acid evoked coughs (in words)” value (10 mg/kg intraperitoneally, FIG. 3) is “markedly inhibited citric acid evoked coughs”. Consider `O=C(N[C@@H]1C2CCN(CC2)[C@H]1Cc1cccnc1)c1cc2ccccc2o1` [(2S,3R)—N-(2-((3-pyridinyl)methyl)-1-azabicyclo[2.2.2]oct-3-yl)benzofuran-2-carboxamide], for which, under “30 mg/kg intraperitoneally, FIG. 4”, the “cumulative citric acid evoked coughs (in words)” value is recorded as “markedly inhibited citric acid evoked coughs”.

(Values after patent US9724340B2, “Antitussive compositions and methods” (Attenua, Inc., priority 2015, dated 2017).)
